Test results as given in publication PMC10005332, “It Takes Two to Tango, Part II: Synthesis of A-Ring Functionalised Quinones Containing Two Redox-Active Centres with Antitumour Activities” (Molecules, 2023).
Read-outs that look alike come from different tables or passages of the source.

Experiments:
[1] = test system: RAJI (human Burkitt’s lymphoma); assay: MTT cytotoxicity assay, RAJI; format: cell-based; conditions: for IC50: Homo sapiens, Raji, 72 h, MTT, 72 h exposure, three independent experiments, read-out: Cytotoxic activity IC50 (95% CI) RAJI; for Selectivity index RAJI: ratio of cytotoxicity L929 / RAJI
Procedure, shortened: (§1)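 IC50 values derive from nonlinear regression of MTT read-outs at 595 nm. Mycoplasma-free cells in RPMI 1640 or DMEM with 10% fetal serum were exposed to test compounds for 72 h, then given MTT for 3 h. Selectivity index uses L929 versus tumour-line cytotoxicity.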

[2] = test system: SNB-19 (human astrocytoma); assay: MTT cytotoxicity assay, SNB-19; format: cell-based; conditions: for IC50: Homo sapiens, SNB-19, MTT, 72 h exposure, three independent experiments, read-out: Cytotoxic activity IC50 (95% CI) SNB-19; for Selectivity index SNB-19: ratio of cytotoxicity L929 / SNB-19
Procedure, shortened: as §1

[3] = test system: PC3 (human prostate adenocarcinoma); assay: MTT cytotoxicity assay, PC3; format: cell-based; conditions: for IC50: Homo sapiens, MTT, 72 h exposure, three independent experiments, read-out: Cytotoxic activity IC50 (95% CI) PC3; for Selectivity index PC3: ratio of cytotoxicity L929 / PC3
Procedure, shortened: as §1

[4] = test system: A549 (human lung carcinoma); assay: MTT cytotoxicity assay, A549; format: cell-based; conditions: for IC50: Homo sapiens, A549, MTT, 72 h exposure, three independent experiments, read-out: Cytotoxic activity IC50 (95% CI) A549; for Selectivity index A549: ratio of cytotoxicity L929 / A549
Procedure, shortened: as §1

[5] = test system: HL60 (human pro-myelocytic leukaemia); assay: MTT cytotoxicity assay, HL60; format: cell-based; conditions: for IC50: MTT, 72 h exposure, three independent experiments, read-out: Cytotoxic activity IC50 (95% CI) HL60; for Selectivity index HL60: ratio of cytotoxicity L929 / HL60
Procedure, shortened: as §1

[6] = test system: KG1 (human acute myeloid leukaemia); assay: MTT cytotoxicity assay, KG1; format: cell-based; conditions: for IC50: Homo sapiens, MTT, 72 h exposure, three independent experiments, read-out: Cytotoxic activity IC50 (95% CI) KG1; for Selectivity index KG1: ratio of cytotoxicity L929 / KG1
Procedure, shortened: as §1

B16 (murine melanoma) = assay: MTT cytotoxicity assay, B16; format: cell-based; conditions: for IC50: Mus musculus, MTT, 72 h exposure, three independent experiments, read-out: Cytotoxic activity IC50 (95% CI) B16; for Selectivity index B16: ratio of cytotoxicity L929 / B16
Procedure, shortened: as §1

[7] = MTT cytotoxicity assay, L929 control line; format: cell-based, mouse; conditions: mouse, L929 fibroblast cells (non-tumoral control line), 72 h exposure, read-out: Cytotoxic activity IC50 (95% CI) L929
Procedure, shortened: as §1

[8] = test system: L929 cells (non-tumoral mouse fibroblast); assay: MTT cytotoxicity assay, L929 control line; format: cell-based; conditions: 72 h exposure, read-out: Cytotoxic activity IC50 (95% CI) L929
Procedure, shortened: as §1

[9] = test system: K-562 (human chronic myeloid leukaemia); assay: MTT cytotoxicity assay, K-562; format: cell-based; conditions: for IC50: Homo sapiens, K562, MTT, 72 h exposure, three independent experiments, read-out: Cytotoxic activity IC50 (95% CI) K-562; for Selectivity index K-562: ratio of cytotoxicity L929 / K-562
Procedure, shortened: as §1

[10] = test system: HCT-116 (human colorectal carcinoma); assay: MTT cytotoxicity assay, HCT-116; format: cell-based; conditions: for IC50: Homo sapiens, HCT-116, 72 h, MTT, 72 h exposure, three independent experiments, read-out: Cytotoxic activity IC50 (95% CI) HCT-116; for Selectivity index HCT-116: ratio of cytotoxicity L929 / HCT-116
Procedure, shortened: as §1

Compound	IC50 [1] [µM]	Selectivity index RAJI [1]	IC50 [2] [µM]	Selectivity index SNB-19 [2]	IC50 [3] [µM]	Selectivity index PC3 [3]	IC50 [4] [µM]	Selectivity index A549 [4]	IC50 ([5]; Homo sapiens, HL-60, 72 h) [µM]	Selectivity index HL60 [5]	IC50 [6] [µM]	Selectivity index KG1 [6]	IC50 (B16 (murine melanoma)) [µM]	Selectivity index B16 (B16 (murine melanoma))	IC50 at 72 h [7] [µM]	IC50 [9] [µM]	Selectivity index K-562 [9]	IC50 [10] [µM]	Selectivity index HCT-116 [10]	other results
C#CCNC1=CC(=O)c2c(O)cccc2C1=O [Compound 18b, 5-hydroxy-2-(prop-2-yn-1-ylamino)naphthalene-1,4-dione]	23.2	1.0	15	1.6	> 100	0.2	15	1.6	> 100	0.2	> 100	0.2	8.65	2.8	24	25	1.0			IC50 [8]: 23.9 µM
O=C1C(=O)c2ccccc2C2=C1CC(Cn1cc(CNC3=CC(=O)c4cc5ccccc5cc4C3=O)nn1)O2 (stereo not drawn) [Compound 20e, 2-((4-(((1,4-dioxo-1,4-dihydroanthracen-2-yl)amino)methyl)-1H-1,2,3-triazol-1-yl)methyl)-2,3-dihydronaphtho[1,2-b]furan-4,5-dione]	5.26	3.0	7.87	2.0	17.6	0.9	12.7	1.3	1.6	10.1	37	0.4	9.57	1.7	15.9	7.58	2.1	7.2	2.2	IC50 [5]: 1.57 µM; IC50 [8]: 15.9 µM
CC1(C)OC2=C(CC1Cn1cc(CNC3=CC(=O)c4c(I)cccc4C3=O)nn1)C(=O)C(=O)c1ccccc12 (stereo not drawn) [Compound 21a, 3-((4-(((5-iodo-1,4-dioxo-1,4-dihydronaphthalen-2-yl)amino)methyl)-1H-1,2,3-triazol-1-yl)methyl)-2,2-dimethyl-3,4-dihydro-2H-benzo[h]chromene-5,6-dione]	5.71	0.3	2.93	0.6	6.19	0.3	2.76	0.7	1.02	1.8	4.2	0.4	0.96	1.9	1.86	5.03	0.4	2.69	0.7	
CC1(C)OC2=C(CC1Cn1cc(CNC3=CC(=O)c4c(O)cccc4C3=O)nn1)C(=O)C(=O)c1ccccc12 (stereo not drawn) [Compound 21b, 3-((4-(((5-hydroxy-1,4-dioxo-1,4-dihydronaphthalen-2-yl)amino)methyl)-1H-1,2,3-triazol-1-yl)methyl)-2,2-dimethyl-3,4-dihydro-2H-benzo[h]chromene-5,6-dione]	2.01	1.0	4.24	0.5	3.85	0.5	1.68	1.2	2.23	0.9	3.01	0.7	3.94	0.5	2.07	4.13	0.5	1.64	1.3	
COc1cccc2c1C(=O)C(NCc1cn(CC3CC4=C(OC3(C)C)c3ccccc3C(=O)C4=O)nn1)=CC2=O (stereo not drawn) [Compound 21c, 3-((4-(((8-methoxy-1,4-dioxo-1,4-dihydronaphthalen-2-yl)amino)methyl)-1H-1,2,3-triazol-1-yl)methyl)-2,2-dimethyl-3,4-dihydro-2H-benzo[h]chromene-5,6-dione]	1.22	4.6	4.92	1.1	5.09	1.1	4.78	1.2	2.28	2.5	1.32	4.2	4.57	1.2	5.6	5.3	1.1	4.85	1.2	
CC1(C)OC2=C(CC1Cn1cc(CNC3=CC(=O)c4cccc(OCc5ccccc5)c4C3=O)nn1)C(=O)C(=O)c1ccccc12 (stereo not drawn) [Compound 21d, 3-((4-(((8-benzyloxy-1,4-dioxo-1,4-dihydronaphthalen-2-yl)amino)methyl)-1H-1,2,3-triazol-1-yl)methyl)-2,2-dimethyl-3,4-dihydro-2H-benzo[h]chromene-5,6-dione]	28.7	0.2	3.83	1.4	9.76	0.5	2.61	2.0	0.89	5.9	11.5	0.5	5.12	1.0	5.27	10.1	0.5	4.16	1.3	
CC1(C)OC2=C(CC1Cn1cc(CNC3=CC(=O)c4cc5ccccc5cc4C3=O)nn1)C(=O)C(=O)c1ccccc12 (stereo not drawn) [Compound 21e, 3-((4-(((1,4-dioxo-1,4-dihydroanthracen-2-yl)amino)methyl)-1H-1,2,3-triazol-1-yl)methyl)-2,2-dimethyl-3,4-dihydro-2H-benzo[h]chromene-5,6-dione]	6.83	0.3	1.33	1.3	2.87	0.6	0.88	1.9	0.5	6.6	4.21	0.4	2.86	0.6	1.71	3.69	0.5	1.74	1.0	IC50 [5]: 0.26 µM
